Laboratory results as given in patent publication US20050090659A1, “Phospholepid derivatives of nucleosides as antitumaorl medicaments” (priority 2001, published 2005).
Read-outs that look alike come from different tables or passages of the source. Marks after values point to notes of the source that are not given here. One block for each molecule: values may come before it.

Key:
MethA fibrosarcoma = details: for percent inhibition relative to the control values of group 1, Day 21 / percent inhibition relative to the control values of group 1, Day 28: + means increase; for Effect on tumor growth (antitumoral / antiproliferative), in words: MethA fibrosarcoma model, 3-100 mg/kg once weekly i.p.; for Tumor volume Day 21 / Tumor volume Day 28: median of 10 animals, once weekly i.p.
Description: The substances, 5-fluoro-2′-deoxyuridine-5′-phosphoric acid-(3-dodecyl-thio-2-decyloxy)propylester (substance A) and 3′-azido-3′-deoxythymidine-5′-phosphoric acid-(3-dodecylthio-2-decyloxy)propylester (substance B), have been tested in the murine MethA fibrosarcoma model, amongst other tests, under in-vivo conditions for their antitumoral or antiproliferative potency and efficacy.
MethA fibrosarcoma cells were propagated intraperitoneal (i.p.) in the form of ascites tumor in female CB6F1 mice (Charles River Laboratories, Sulzfeld, Germany). For the entire duration of the tests, the animals were kept in macrolon cages under laminar flow conditions at 23±1° C. room temperature, 55±15% relative humidity and a light-dark cycle of 12 h each. […] Prior to enrolment in the corresponding experiment, the animals were accustomed to the conditions for at least 14 days. The animals were routinely checked for infection by murine viruses.
To test the active substance, female CB6F1 mice 6-8 weeks of age were inoculated with 1×10^5 MethA fibrosarcoma cells per mouse by the subcutaneous (s.c.) route. The tumor growth in control group mice and in animals of the verum-treated groups was determined regularly in weekly intervals by measuring the two perpendicular tumor diameters as described in Hermann D. B. J., Pahlke W., Opitz H.-G. and Bicker U., Cancer Treatment Reviews, 17, 247-252, 1990. The test substances were tested in a dose-dependent fashion with once weekly i.p. administration in phosphate-buffered saline (PBS). Animals in the control group were treated with placebo (PBS).
Tumor volumes on days 21 and 28 after tumor cell inoculation are expressed as medians of 10 animals per experimental group.

[1] = for Blood levels: HB / Blood levels: HCT / Blood levels: MCH / Blood levels: MCHC / Blood levels: MCV / Blood levels: PLT / Blood levels: RBC / Blood levels: WBC / Organ weight: Brain / Organ weight: Colon / Organ weight: Heart / Organ weight: Intestines / Organ weight: Kidney / Organ weight: Liver / Organ weight: Lungs / Organ weight: Ovaries / Organ weight: Spleen / Organ weight: Stomach / Bone marrow cell count: mean ± SEM; for Bone marrow cell count: 10 animals; for Body weight: median
Procedure: Substance A was tested in female NMRI mice for its tolerability. The animals were kept under the same conditions as described in Example 1.
Female NMRI mice, 6-8 weeks of age (Charles River Laboratories, Sulzfeld, Germany), were treated with 1 or 1.5 g/kg of substance A administered by an esophageal probe. Subsequently, the following toxicity parameters were determined: • Blood counts, including white blood cell concentration (WBC), red blood cells concentration (RBC), hemoglobin (HB), hematocrit (HCT), platelet concentration (PLT), mean corpuscular volume (MCV), mean corpuscular hemoglobin (MCH) and mean corpuscular hemoglobin concentration (MCHC), • Bone marrow cell count, i.e. number of bone marrow cells per femur (M/femur), • Body weight • Organ weights, including weight of colon, heart, brain, intestines, lungs, liver, stomach, spleen, kidneys, ovaries.

K562 cells = experiment: Proliferation experiments with combinations, WST-1 colorimetry; assay type: cell-based; details: for reduction of the IC50 value of the combination partner in combination with substance A: substance A at a concentration just short of an antiproliferative effect
Procedure: The effect of the combination containing substance A and cisplatin, doxorubicin, vincristine, and camptothecin, was tested in proliferation experiments. For this purpose, substance A was dissolved in medium at a stock concentration of 1 mg/ml. The other substances were dissolved in water or DMSO (dimethylsulfoxide) at the same stock concentration of 1 mg/ml. The series' of experiments were performed in 96-well plates. […] Cells in the absence of substance and pure medium served as the controls. The in-vitro activity of the test substances was determined by colorimetry on the basis of cleavage of the tetrazolium salt, WST-1 (Roche Molecular Biochemicals, Mannheim, Del.). For this purpose, the cultures were incubated with 10 μl WST for 4 hours. Then the plates were shaken gently. The optical density was measured with an ELISA reader (Spectra MAX 340PC, Molecular Devices, Ismaning, Del.) at wavelengths from 440 to 650 nm. The IC50 value was determined for each substance. In the case of the combination, one of the substances was used at a concentration just short of showing an antiproliferative effect and the IC50 value of the combination was then determined after the addition of the second substance.

[2] = 3 mg/kg/application, day 21 after tumor cell inoculation
[3] = very high dosage (1 or 1.5 g/kg)
[4] = partner at a concentration just short of an antiproliferative effect

SMILES: CCCCCCCCCCCCSCC(COP(=O)(O)OC[C@H]1O[C@@H](n2cc(F)c(=O)[nH]c2=O)C[C@@H]1O)OCCCCCCCCCC (some centres unmarked) [Substance A, 5-fluoro-2′-deoxyuridine-5′-phosphoric acid-(3-dodecyl-thio-2-decyloxy)propylester]
percent inhibition relative to the control values of group 1, Day 21 (MethA fibrosarcoma; 3 mg/kg/application, day 21): 59.1% | percent inhibition relative to the control values of group 1, Day 28 (MethA fibrosarcoma; 3 mg/kg/application): 57.6% | percent inhibition relative to the control values of group 1, Day 21 (MethA fibrosarcoma; 30 mg/kg/application, day 21): 89.7% | percent inhibition relative to the control values of group 1, Day 28 (MethA fibrosarcoma; 30 mg/kg/application): 87.2% | percent inhibition relative to the control values of group 1, Day 21 (MethA fibrosarcoma; 100 mg/kg/application, day 21): 91.1% | percent inhibition relative to the control values of group 1, Day 28 (MethA fibrosarcoma; 100 mg/kg/application): 92.2% | Effect on tumor growth (antitumoral / antiproliferative), in words (MethA fibrosarcoma): inhibits tumor growth highly significantly and in a dose- and time-dependent fashion | Tumor volume Day 21 (MethA fibrosarcoma; [2]): 1.649 mm^3 | Tumor volume Day 28 (MethA fibrosarcoma; 3 mg/kg/application): 4.163 mm^3 | Tumor volume Day 21 (MethA fibrosarcoma; 30 mg/kg/application, day 21): 416 mm^3 | Tumor volume Day 28 (MethA fibrosarcoma; 30 mg/kg/application): 1.254 mm^3 | Tumor volume Day 21 (MethA fibrosarcoma; 100 mg/kg/application, day 21): 357 mm^3 | Tumor volume Day 28 (MethA fibrosarcoma; 100 mg/kg/application): 762 mm^3 | Blood levels: HB ([1]; 1 g/kg): 17850 ± 390 µg/mL | Blood levels: HCT ([1]; 1 g/kg): 47.93 ± 1.16% | Blood levels: MCH ([1]; 1 g/kg): 19.28 ± 0.22 pg | Blood levels: MCHC ([1]; 1 g/kg): 37.29 ± 0.44 g/dL | Blood levels: MCV ([1]; 1 g/kg): 51.50 ± 0.58 fL | Blood levels: PLT ([1]; 1 g/kg): 1153 ± 41 k/μl | Blood levels: RBC ([1]; 1 g/kg): 9.31 ± 0.23 M/μl | Blood levels: WBC ([1]; 1 g/kg): 14.34 ± 2.18 k/μl | Organ weight: Brain ([1]; 1 g/kg): 399 ± 8 g | Organ weight: Colon ([1]; 1 g/kg): 373 ± 15 g | Organ weight: Heart ([1]; 1 g/kg): 133 ± 4 g | Organ weight: Intestines ([1]; 1 g/kg): 1.622 ± 61 g | Organ weight: Kidney ([1]; 1 g/kg): 361 ± 17 g | Organ weight: Liver ([1]; 1 g/kg): 1.602 ± 42 g | Organ weight: Lungs ([1]; 1 g/kg): 226 ± 9 g | Organ weight: Ovaries ([1]; 1 g/kg): 183 ± 17 g | Organ weight: Spleen ([1]; 1 g/kg): 125 ± 9 g | Organ weight: Stomach ([1]; 1 g/kg): 232 ± 7 g | Bone marrow cell count ([1]; 1 g/kg): 28.48 ± 0.86 M/Femur | Body weight ([1]; 1 g/kg): 28.7^c g | Tolerability parameters compared to the placebo-treated control group, in words ([1]; 1 or 1.5 g/kg of body weight): no significant reduction in the tolerability parameters | Blood levels: HB ([1]; 1.5 g/kg): 15790 ± 920 µg/mL | Blood levels: HCT ([1]; 1.5 g/kg): 43.42 ± 2.77% | Blood levels: MCH ([1]; 1.5 g/kg): 19.09 ± 0.37 pg | Blood levels: MCHC ([1]; 1.5 g/kg): 36.53 ± 0.38 g/dL | Blood levels: MCV ([1]; 1.5 g/kg): 52.09 ± 0.81 fL | Blood levels: PLT ([1]; 1.5 g/kg): 1431 ± 172 k/μl | Blood levels: RBC ([1]; 1.5 g/kg): 8.34 ± 0.56 M/μl | Blood levels: WBC ([1]; 1.5 g/kg): 16.97 ± 6.05 k/μl | Organ weight: Brain ([1]; 1.5 g/kg): 387 ± 18 g | Organ weight: Colon ([1]; 1.5 g/kg): 392 ± 29 g | Organ weight: Heart ([1]; 1.5 g/kg): 126 ± 9 g | Organ weight: Intestines ([1]; 1.5 g/kg): 1.807 ± 112 g | Organ weight: Kidney ([1]; 1.5 g/kg): 351 ± 26 g | Organ weight: Liver ([1]; 1.5 g/kg): 1.739 ± 81 g | Organ weight: Lungs ([1]; 1.5 g/kg): 206 ± 9 g | Organ weight: Ovaries ([1]; 1.5 g/kg): 203 ± 33 g | Organ weight: Spleen ([1]; 1.5 g/kg): 204 ± 26 g | Organ weight: Stomach ([1]; 1.5 g/kg): 232 ± 16 g | Bone marrow cell count ([1]; 1.5 g/kg): 31.44 ± 1.51 M/Femur | Body weight ([1]; 1.5 g/kg): 27.9^c g | Bone marrow suppression, hematotoxicity or unspecific-toxic organ intolerance, in words [1, 3]: no evidence of bone marrow suppression, hematotoxicity or unspecific-toxic organ intolerance | Unspecific-toxic properties under in-vivo conditions, in words [1, 3]: no unspecific-toxic properties | reduction of the IC50 value of substance A in combination with camptothecin (K562 cells; [4]): approx. 40% | reduction of the IC50 value of substance A in combination with cisplatin (K562 cells; [4]): 25% | reduction of the IC50 value of substance A in combination with doxorubicin (K562 cells; [4]): approx. 30% | reduction of the IC50 value of substance A in combination with vincristine (K562 cells; [4]): approx. 60%

SMILES: CCCCCCCCCCCCSCC(COP(=O)(O)OC[C@H]1O[C@@H](n2cc(C)c(=O)[nH]c2=O)C[C@@H]1N=[N+]=[N-])OCCCCCCCCCC (some centres unmarked) [Substance B, 3′-azido-3′-deoxythymidine-5′-phosphoric acid-(3-dodecylthio-2-decyloxy)propylester, reference compound]
percent inhibition relative to the control values of group 1, Day 21 (MethA fibrosarcoma; 3 mg/kg/application, day 21): 0.8% | percent inhibition relative to the control values of group 1, Day 28 (MethA fibrosarcoma; 3 mg/kg/application): +4.1% | percent inhibition relative to the control values of group 1, Day 21 (MethA fibrosarcoma; 30 mg/kg/application, day 21): +1.7% | percent inhibition relative to the control values of group 1, Day 28 (MethA fibrosarcoma; 30 mg/kg/application): +1.4% | percent inhibition relative to the control values of group 1, Day 21 (MethA fibrosarcoma; 100 mg/kg/application, day 21): 0.3% | percent inhibition relative to the control values of group 1, Day 28 (MethA fibrosarcoma; 100 mg/kg/application): +2.8% | Effect on tumor growth (antitumoral / antiproliferative), in words (MethA fibrosarcoma): no antitumoral or antiproliferative properties | Tumor volume Day 21 (MethA fibrosarcoma; [2]): 3.998 mm^3 | Tumor volume Day 28 (MethA fibrosarcoma; 3 mg/kg/application): 10.228 mm^3 | Tumor volume Day 21 (MethA fibrosarcoma; 30 mg/kg/application, day 21): 4.102 mm^3 | Tumor volume Day 28 (MethA fibrosarcoma; 30 mg/kg/application): 9.963 mm^3 | Tumor volume Day 21 (MethA fibrosarcoma; 100 mg/kg/application, day 21): 4.021 mm^3 | Tumor volume Day 28 (MethA fibrosarcoma; 100 mg/kg/application): 10.098 mm^3

SMILES: CC[C@@]1(O)C(=O)OCc2c1cc1n(c2=O)Cc2cc3ccccc3nc2-1 [camptothecin, reference compound]
reduction of the IC50 value of the combination partner in combination with substance A (K562 cells): approx. 90%

SMILES: N.N.[Cl][Pt][Cl] [cisplatin, reference compound]
reduction of the IC50 value of the combination partner in combination with substance A (K562 cells): 50%

reduction of the IC50 value of the combination partner in combination with substance A (K562 cells): approx. 50%
SMILES: COc1cccc2c1C(=O)c1c(O)c3c(c(O)c1C2=O)C[C@@](O)(C(=O)CO)C[C@@H]3O[C@H]1C[C@H](N)[C@H](O)[C@H](C)O1 [doxorubicin, reference compound]

reduction of the IC50 value of the combination partner in combination with substance A (K562 cells): approx. 65%
SMILES: CC[C@]1(O)C[C@H]2CN(CCc3c([nH]c4ccccc34)[C@@](C(=O)OC)(c3cc4c(cc3OC)N(C=O)[C@H]3[C@@](O)(C(=O)OC)[C@H](OC(C)=O)[C@]5(CC)C=CCN6CC[C@]43[C@@H]65)C2)C1 [vincristine, reference compound]
